The values below come from paper PMC9365693 (Nature, 2022).

Entries after “also recorded” stand apart in the source; their conditions may differ. Where two headings read alike, the source gives them in different places.

Assay [1] in a line: Mobility-edited H(H)C ssNMR: membrane topology of lipid II-bound teixobactin. The conditions noted are these: 300 K, T2 filter 2.5 ms. An excerpt:
(§1) T1rho trajectories were fit to single exponentials.
Extended Data Fig. 8 The membrane topology of the complex. a) and b) show mobility-edited (‘T2-filtered’) ^1H(^1H)^13C ssNMR experiments[37] of ^13C,^15N-teixobactin bound to Lipid II. […] For each residue, peak areas were integrated using Topspin 4.06. Signals that were used for the integration are annotated. e) Membrane topology visualized with the ssNMR structure. Hydrophilic (in blue) and hydrophobic (brown) residues are sharply separated above and below the β-sheet, respectively. Note that the N-terminal Phe1 at the rim of the β-sheet has higher water accessibility, potentially because of fraying and mobility effects. f) Normalized contacts to water and lipid-tails, back-calculated over the MD simulation based on our ssNMR structure. g) Membrane topology using a different structure of the calculated ssNMR ensemble. As shown in Extended Data Fig. 9a, the despi-cycle is plastic and can point up towards the water phase, bringing End10 well-above the membrane-plane. Source data

A short description of assay [2]: Confocal microscopy of GUVs doped with Atto 550-labelled lipid II. The note with it: DOPC GUVs with 0.1 mol% Atto 550-lipid II, 1 μM teixobactin, 3 h; biological triplicates. Here is the method: We used a self-assembled GUV cell, aligned with two titanium electrodes in a closed Teflon chamber (volume = 500 μl). Of 0.5 mM DOPC doped with Atto 550-labelled lipid II (0.1 mol%), 1 μl was brushed on the titanium electrodes. The GUV cell was dried under vacuum. Next, the chamber was filled with 350 μl 0.1 M sucrose solution, the electrodes dipped in and connected to a power supply of a sine wave (2.5 V; 10 Hz; 90 min). Each microscopy slide (m-slide 8 well, Ibidi) was incubated with 350 μl BSA solution (1 mg ml^−1) for 1 h. To detach the GUVs, the power supply was changed to square wave (2 V; 2 Hz; 15 min). The slides were washed once with water and 0.1 M glucose solution. The slides were immersed in 300 μl of 0.1 M glucose solution to which 50 μl of GUVs was added. […] GUVs were imaged using Zeiss LSM 880 with ×63/1.2 NA glycerol and ×100/1.2 NA oil objective lenses. The Atto 550 label appeared red upon excitation by the 560-nm laser. The brightfield was used for detection and location of the GUVs and to observe their shape. Zeiss Zen Black software was used for the analysis of the images.

The nature of assay [3]: Intermolecular teixobactin–teixobactin ssNMR contacts (2D 13C13C). The conditions noted are these: 2D 13C13C ssNMR, 600 ms transfer, lipid II-bound.
Excerpt: as §1
Solid-state NMR ^13C-^13C PARISxy spectra of the ^13C,^15N-teixobactin – Lipid II complex in membranes show several cross-peaks (in red) that cannot be intramolecular contacts because this would require magnetization transfer over more than 10 Å. Rather, these cross-peaks correspond to intermolecular contacts between different teixobactin molecules and agree with the formation of antiparallel β-sheets.

The conditions of assay [4]: for interaction with lipid II moieties (in words): ssNMR, DOPC liposomes with 4 mol% lysine-lipid II, pH 7.2.
Method: Multi-lamellar vesicles of DOPC doped with 4 mol% lysine-lipid II in buffer (40 mM Na2PO4 and 25 mM NaCl, pH 7.2) were collected by centrifugation (60,000g) and loaded into ssNMR rotors. […] For 1.3-mm rotors, samples contained 200 nmol of antibiotic for unlabelled lipid II.
^1H-detected ssNMR experiments were performed at 60 kHz magic angle spinning (MAS) using magnetic fields of 700 and 950 MHz (^1H frequency). […] T1rho trajectories were fit to single exponentials. 2D CC experiments were acquired with PARISxy[33],[53] recoupling (m = 1) at 950 MHz magnetic field and 18 kHz MAS. A 2D CαN experiment was acquired at 700 MHz, 12 kHz MAS and 5 ms N to C cross-polarization transfer time. […] The scalar TOBSY[35] experiment was acquired at 700 MHz using 8 kHz MAS with 6 ms CC mixing time. The mobility edited H(H)C experiment[25] was measured at 700 MHz with 16.5 kHz MAS at a temperature of 300 K using a T2 relaxation filter of 2.5 ms. 1D MAS ^31P experiments were acquired at 500 MHz magnetic field and 12 kHz MAS. 2D HP experiments were acquired at 800 MHz and 60 kHz MAS using 1 and 2 ms ^1H to ^31P cross-polarization contact time. Static ^31P ssNMR experiments were acquired at 500 MHz magnetic field without sample spinning.
Assay [5] concerns Gram-positive pathogens. The conditions noted are these: cited from earlier work. The protocol:
Antibiotics that use novel mechanisms are needed to combat antimicrobial resistance[1]–[3]. […] Here we unravel the mechanism of teixobactin at the atomic level using a combination of solid-state NMR, microscopy, in vivo assays and molecular dynamics simulations. […] (Fig. 4h and Extended Data Fig. 10b,c).

The nature of assay [6]: Pyrene-labelled lipid II excimer fluorescence (oligomerization). The conditions noted are these: DOPC LUVs with 0.5 mol% pyrene-lipid II, 10 mM Tris-Cl 100 mM NaCl pH 8.0, 20 °C.

For teixobactin, in assay [1], the “membrane topology (in words)” value was “localizes at the water–membrane interface with the hydrophobic residues Ile2, Ile5 and Ile6 partitioned in the bilayer”. The “GUV oligomerization and membrane perturbation (in words)” value in assay [2] is “formation of micron-sized teixobactin–lipid II oligomers; also recorded: pronounced concave membrane perturbations at the oligomerization sites”. Further, in assay [3], the “antiparallel β-sheet formation (in words)” value was “strongly supports that natural teixobactin also forms antiparallel β-sheets”. Besides, the “number of interfacial End10–MurNAc ssNMR contacts” value in assay [4] (2D 13C13C PARISxy, 13C,15N-teixobactin and 13C,15N-lipid II in DOPC liposomes) worked out at 11. Also, the “interaction with lipid II moieties (in words)” value in assay [4] (listed as Teixobactin) is given as “did not bind to the pentapeptide of lipid II”. The “interaction with lipid II moieties (in words)” value in assay [4] (listed as natural teixobactin) was “tight and specific interactions”. Also, the “antibacterial activity (in words)” value in assay [5] (MRSA, S. pneumoniae, vancomycin-resistant Enterococci) was “broad activity against multidrug-resistant Gram-positive pathogens”. In addition, in assay [5], the “bacterial killing compared with vancomycin (in words)” value is given as “more effective in killing bacteria than vancomycin” and the “resistance (in words)” value was “lack of resistance”. In assay [6], the “oligomerization by pyrene-tagged lipid II (in words)” value is “with the increase in teixobactin concentration there is a relative decrease in the monomer signal followed by a respective increase in the excimer signal; also recorded: oligomers form immediately after the addition of teixobactin”.
